Assay results reported in patent US9796700B2 (Celgene CAR LLC, priority 2013, dated 2017).
pIC50: −log10 of the molar value. Like-named read-outs stand apart in the source and are kept apart here.

Legend:
Erk1 = Erk1 (Homo sapiens (Human), UniProt P27361); assay: Protein Mass Modification Assay (intact protein MALDI); type: binding
Method in brief: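 Human Erk1 was incubated 60 min at room temperature with a 10-fold molar excess of compound, then analysed as intact protein by MALDI with sinapinic acid matrix. The centroid mass shift versus untreated protein was divided by compound molecular weight to give percent modified protein.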

MEK1 activated ERK1 = MEK1 activated ERK1 (Homo sapiens (Human), UniProt P27361); assay: Omnia continuous-read kinase assay for potency against MEK1 activated ERK1; type: biochemical
Method in brief: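 Apparent IC50 came from initial reaction slopes (RFU vs time) plotted against log inhibitor with a variable-slope fit. Reactions were started with ERK1 (4 nM final) added to 50 μM ATP, roughly at its appKM, and 10 μM Sox-conjugated ST17 peptide in 20 mM Tris pH 7.5, 5 mM MgCl2. Fluorescence was monitored every 71 seconds.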

[1] = MEK1 activated ERK1, WT, ATP at KM
[2] = read-out: ERK1 Omnia WT ATP KM IC50

Erk1, sequence (P27361 whole entry, looked up): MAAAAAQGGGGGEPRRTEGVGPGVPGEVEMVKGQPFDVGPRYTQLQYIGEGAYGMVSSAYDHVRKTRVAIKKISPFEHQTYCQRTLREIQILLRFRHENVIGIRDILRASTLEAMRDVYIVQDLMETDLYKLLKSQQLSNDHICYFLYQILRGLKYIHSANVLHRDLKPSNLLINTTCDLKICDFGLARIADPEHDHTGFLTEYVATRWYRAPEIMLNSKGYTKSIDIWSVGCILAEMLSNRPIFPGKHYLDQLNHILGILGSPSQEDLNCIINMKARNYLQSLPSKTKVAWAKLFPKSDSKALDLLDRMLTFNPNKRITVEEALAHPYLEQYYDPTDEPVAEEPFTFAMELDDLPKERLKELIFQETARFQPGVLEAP
MEK1 activated ERK1, sequence (P27361 whole entry): as the sequence (P27361 whole entry, looked up) above

SMILES | ERK1 Mass Mod (%) (Erk1) | pIC50 (MEK1 activated ERK1; [1]) | pIC50 (MEK1 activated ERK1; [2])
CC(C)=CC(=O)c1ccccc1Oc1nc(Nc2cc(C(N)=O)ccc2C)ncc1Cl [Compound I-223, 3-((5-chloro-4-(2-(3-methylbut-2-enoyl)phenoxy)pyrimidin-2-yl)amino)-4-methylbenzamide] | E (provided a mass modification of ≧70%) | < 6.00 | –
C=C(C)S(=O)(=O)Nc1cc(F)ccc1Nc1nc(Nc2cc(C(C)=O)ccc2C)ncc1Cl [Compound I-243, N-(2-((2-((5-acetyl-2-methylphenyl)amino)-5-chloropyrimidin-4-yl)amino)-5-fluorophenyl)prop-1-ene-2-sulfonamide] | G (key: E: provided a mass modification of ≧70%; F: provided a mass modification of 31-69%; G: proived a mass modification ≦30%) | – | > 7.00
C=CC(=O)Nc1cc(C)ccc1Nc1nc(Nc2cc(Cl)nc(OC)c2)ncc1Cl [Compound I-244, N-(2-((5-chloro-2-((2-chloro-6-methoxypyridin-4-yl)amino)pyrimidin-4-yl)amino)-5-methylphenyl)acrylamide] | E (provided a mass modification of ≧70%) | < 6.00 | –
C=CC(=O)Nc1cc(Cl)ccc1Nc1nc(Nc2cc(Cl)nc(OC)c2)ncc1Cl [Compound I-247, N-(5-chloro-2-((5-chloro-2-((2-chloro-6-methoxypyridin-4-yl)amino)pyrimidin-4-yl)amino)phenyl)acrylamide] | F (provided a mass modification of 31-69%) | < 6.00 | –
C=CC(=O)Nc1ccccc1Oc1nc(Nc2ccc(N3CCN(C(C)=O)CC3)cc2OC)ncc1Cl [Compound I-259, N-(2-((2-((4-(4-acetylpiperazin-1-yl)-2-methoxyphenyl)amino)-5-chloropyrimidin-4-yl)oxy)phenyl)acrylamide] | F (provided a mass modification of 31-69%) | < 6.00 | –
C=CC(=O)Nc1ccccc1Oc1nc(Nc2ccc(N3CCN(C(C)=O)CC3)cc2OC)ncc1F [Compound I-260, N-(2-((2-((4-(4-acetylpiperazin-1-yl)-2-methoxyphenyl)amino)-5-fluoropyrimidin-4-yl)oxy)phenyl)acrylamide] | G (proived a mass modification ≦30%) | < 6.00 | –
C=CC(=O)Nc1ccccc1Oc1ccnc(Nc2ccc(N3CCN(C(C)=O)CC3)cc2OC)n1 [Compound I-261, N-(2-((2-((4-(4-acetylpiperazin-1-yl)-2-methoxyphenyl)amino)pyrimidin-4-yl)oxy)phenyl)acrylamide] | G (proived a mass modification ≦30%) | < 6.00 | –
C=CC(=O)Nc1cc(OC)ccc1Oc1nc(Nc2ccc(N3CCC[C@@H]3C(N)=O)cc2OC)ncc1C(N)=O [Compound I-262, (R)-4-(2-acrylamido-4-methoxyphenoxy)-2-((4-(2-carbamoylpyrrolidin-1-yl)-2-methoxyphenyl)amino)pyrimidine-5-carboxamide] | F (provided a mass modification of 31-69%) | < 6.00 | –
C=CC(=O)Nc1cc(OC)ccc1Oc1nc(Nc2ccc(N3CCC[C@@H]3CO)cc2OC)ncc1C(N)=O [Compound I-264, (R)-4-(2-acrylamido-4-methoxyphenoxy)-2-((4-(2-(hydroxymethyl)pyrrolidin-1-yl)-2-methoxyphenyl)amino)pyrimidine-5-carboxamide] | F (key: E: provided a mass modification of ≧70%; F: provided a mass modification of 31-69%; G: proived a mass modification ≦30%) | – | 6.00 to 6.30
C=CC(=O)Nc1cc(OC)ccc1Oc1nc(Nc2ccc(N3CCC[C@H]3C(N)=O)cc2OC)ncc1C(N)=O [Compound I-265, (S)-4-(2-acrylamido-4-methoxyphenoxy)-2-((4-(2-carbamoylpyrrolidin-1-yl)-2-methoxyphenyl)amino)pyrimidine-5-carboxamide] | F (provided a mass modification of 31-69%) | < 6.00 | –
CC(C)=CC(=O)c1ccccc1Oc1nc(Nc2cc(C(N)=O)ccc2C)ncc1C(N)=O [Compound I-271, 2-((5-carbamoyl-2-methylphenyl)amino)-4-(2-(3-methylbut-2-enoyl)phenoxy)pyrimidine-5-carboxamide] | G (proived a mass modification ≦30%) | < 6.00 | –
CN(C)CCC(=O)Nc1ccccc1Nc1nc(N[C@H]2CCCN(C(=O)CO)C2)ncc1C(F)(F)F [Compound I-276, (S)-3-(dimethylamino)-N-(2-((2-((1-(2-hydroxyacetyl)piperidin-3-yl)amino)-5-(trifluoromethyl)pyrimidin-4-yl)amino)phenyl)propanamide] | G (proived a mass modification ≦30%) | < 6.00 | –
C=CC(=O)Nc1cc(C)ccc1Nc1nc(N[C@H]2CCCN(S(=O)(=O)C=C)C2)ncc1C(F)(F)F [Compound I-277, (S)—N-(5-Methyl-2-((5-(trifluoromethyl)-2-((1-(vinylsulfonyl)piperidin-3-yl)amino)pyrimidin-4-yl)amino)phenyl)acrylamide] | E (provided a mass modification of ≧70%) | < 6.00 | –
C=CC(=O)Nc1cc(C)ccc1Nc1nc(N[C@@H]2CCCN(S(=O)(=O)C=C)C2)ncc1C(F)(F)F [Compound I-278, (R)—N-(5-Methyl-2-((5-(trifluoromethyl)-2-((1-(vinylsulfonyl)piperidin-3-yl)amino)pyrimidin-4-yl)amino)phenyl)acrylamide] | F (provided a mass modification of 31-69%) | < 6.00 | –
C=CC(=O)Nc1cc(C)ccc1Nc1nc(N[C@@H]2CCN(S(=O)(=O)C=C)C2)ncc1C(F)(F)F [Compound I-280, (R)—N-(5-Methyl-2-((5-(trifluoromethyl)-2-((1-(vinylsulfonyl)pyrrolidin-3-yl)amino)pyrimidin-4-yl)amino)phenyl)acrylamide] | E (provided a mass modification of ≧70%) | < 6.00 | –

The next lines start with results.

ERK1 Mass Mod (%) (Erk1) | pIC50 (MEK1 activated ERK1; [1]) | SMILES | pIC50 (MEK1 activated ERK1; [2])
G (proived a mass modification ≦30%) | < 6.00 | CC(C)=CC(=O)c1ccccc1Nc1nc(Nc2cc(C(N)=O)ccc2C)ncc1Cl [Compound I-216, 3-((5-chloro-4-((2-(3-methylbut-2-enoyl)phenyl)amino)pyrimidin-2-yl)amino)-4-methylbenzamide] | –
G (proived a mass modification ≦30%) | < 6.00 | C=C(C)C(=O)Nc1ccccc1Nc1nc(Nc2cc(C(N)=O)ccc2C)ncc1Cl [Compound I-217, 3-((5-chloro-4-((2-methacrylamidophenyl)amino)pyrimidin-2-yl)amino)-4-methylbenzamide] | –
G (proived a mass modification ≦30%) | < 6.00 | Cc1ccc(C(N)=O)cc1Nc1ncc(Cl)c(Nc2ccccc2NC(=O)/C=C/CN(C)C)n1 [Compound I-218, (E)-3-((5-chloro-4-((2-(4-(dimethylamino)but-2-enamido)phenyl)amino)pyrimidin-2-yl)amino)-4-methylbenzamide] | –
G (proived a mass modification ≦30%) | < 6.00 | C/C=C/C(=O)Nc1ccccc1Nc1nc(Nc2cc(C(N)=O)ccc2C)ncc1Cl [Compound I-219, (E)-3-((4-((2-(but-2-enamido)phenyl)amino)-5-chloropyrimidin-2-yl)amino)-4-methylbenzamide] | –
E (provided a mass modification of ≧70%) | > 7.00 | C=CC(=O)Nc1cc(F)ccc1Nc1nc(Nc2ccc(F)cc2C#N)ncc1Cl [Compound I-221, N-(2-((5-chloro-2-((2-cyano-4-fluorophenyl)amino)pyrimidin-4-yl)amino)-5-fluorophenyl)acrylamide] | –
G (proived a mass modification ≦30%) | < 6.00 | CC(C)=CC(=O)c1ccccc1Oc1nc(Nc2ccc(F)cc2C)ncc1Cl [Compound I-222, 1-(2-((5-chloro-2-((4-fluoro-2-methylphenyl)amino)pyrimidin-4-yl)oxy)phenyl)-3-methylbut-2-en-1-one] | –
G (proived a mass modification ≦30%) | > 7.00 | C#CCOc1cc(C)c(Nc2ncc(Cl)c(Nc3ccccc3NC(=O)C=C)n2)cc1C(N)=O [Compound I-228, 5-((4-((2-acrylamidophenyl)amino)-5-chloropyrimidin-2-yl)amino)-4-methyl-2-(prop-2-yn-1-yloxy)benzamide] | –
E (provided a mass modification of ≧70%) | > 7.00 | C=CC(=O)Nc1cc(OC)ccc1Nc1nc(Nc2cc(C(N)=O)ccc2C)ncc1Cl [Compound I-237, 3-((4-((2-acrylamido-4-methoxyphenyl)amino)-5-chloropyrimidin-2-yl)amino)-4-methylbenzamide] | –
E (provided a mass modification of ≧70%) | > 7.00 | C=CC(=O)Nc1ccccc1Oc1nc(Nc2ccc(N3CCN(C(C)=O)CC3)cc2OC)ncc1C(N)=O [Compound I-258, 2-((4-(4-acetylpiperazin-1-yl)-2-methoxyphenyl)amino)-4-(2-acrylamidophenoxy)pyrimidine-5-carboxamide] | –
E (provided a mass modification of ≧70%) | > 7.00 | C=CC(=O)Nc1ccccc1Nc1nc(Nc2cc(OC)nc(N3CCCC3)c2)ncc1C(F)(F)F [Compound I-281, N-(2-((2-((2-Methoxy-6-(pyrrolidin-1-yl)pyridin-4-yl)amino)-5-(trifluoromethyl)pyrimidin-4-yl)amino)phenyl)acrylamide] | –
E (provided a mass modification of ≧70%) | > 7.00 | C=CC(=O)Nc1ccccc1Nc1nc(Nc2cc(OC)nc(OCCOC)c2)ncc1C(F)(F)F [Compound I-283, N-(2-((2-((2-Methoxy-6-(2-methoxyethoxy)pyridin-4-yl)amino)-5-(trifluoromethyl)pyrimidin-4-yl)amino)phenyl)acrylamide] | –
